Measurements as given in patent publication US9108960B2 (priority 2011, dated 2015).
In brackets after ≈: the same amount, converted by molar mass.

How the values were obtained:
M. tuberculosis Rif^R = assay: Antimycobacterial assay, MIC by broth microdilution / Nitrate Reductase Assay; type: cell-based; details: Mycobacterium tuberculosis, read-out: MIC M. tuberculosis Rif^R
M. tuberculosis H37Rv [1] = assay: as above; type: cell-based; details: Mycobacterium tuberculosis, exposure period 3-4 days
M. tuberculosis XDR-1 = assay: as above; type: cell-based; details: Mycobacterium tuberculosis, XDR1, read-out: MIC M. tuberculosis XDR-1
M. tuberculosis H37Rv [2] = details: literature values (footnote *); cited from earlier work

Structure (SMILES)	MIC (M. tuberculosis Rif^R) [µg/mL]	MIC (M. tuberculosis H37Rv [1]) [µg/mL]	MIC (M. tuberculosis XDR-1) [µg/mL]	MIC M. tuberculosis H37Rv (M. tuberculosis H37Rv [2]) [µg/mL]
O=C(Nc1ccc(N2CCC(c3n[nH]c(=O)o3)CC2)cc1)c1ccc([N+](=O)[O-])o1 [Compound 8a, N2-4-[4-(5-Oxo-4,5-dihydro-1,3,4-oxadiazol-2-yl)piperidino]phenyl-5-nitro-2-furamide]	1 (≈ 2.5 µM)	1 (≈ 2.5 µM)	4 (≈ 10 µM)	
CCn1nc(C2CCN(c3ccc(NC(=O)c4ccc([N+](=O)[O-])o4)cc3)CC2)oc1=O [Compound 8c, N2-4-[4-(4-Ethyl-5-oxo-4,5-dihydro-1,3,4-oxadiazol-2-yl)piperidino]phenyl-5-nitro-2-furamide]	2 (≈ 4.68 µM)	1 (≈ 2.34 µM)	4 (≈ 9.36 µM)	
O=C(Nc1ccc(N2CCC(c3n[nH]c(=O)o3)CC2)c(F)c1)c1ccc([N+](=O)[O-])o1 [Compound 8e, N2-3-Fluoro-4-[4-(5-oxo-4,5-dihydro-1,3,4-oxadiazol-2-yl)piperidino]phenyl-5-nitro-2-furamide]	2 (≈ 4.79 µM)	2 (≈ 4.79 µM)	8 (≈ 19.2 µM)	
Cn1nc(C2CCN(c3ccc(NC(=O)c4ccc([N+](=O)[O-])o4)cc3F)CC2)oc1=O [Compound 8f, N2-3-Fluoro-4-[4-(4-methyl-5-oxo-4,5-dihydro-1,3,4-oxadiazol-2-yl)piperidino]phenyl-5-nitro-2-furamide]	2 (≈ 4.64 µM)	1 (≈ 2.32 µM)	4 (≈ 9.27 µM)	
CCn1nc(C2CCN(c3ccc(NC(=O)c4ccc([N+](=O)[O-])o4)cc3F)CC2)oc1=O [Compound 8g, N2-4-[4-(4-Ethyl-5-oxo-4,5-dihydro-1,3,4-oxadiazol-2-yl)piperidino]-3-fluorophenyl-5-nitro-2-furamide]	1 (≈ 2.25 µM)	0.5 (≈ 1.12 µM)	2 (≈ 4.49 µM)	
O=c1[nH]nc(C2CCN(c3ccc(/N=C/c4ccc([N+](=O)[O-])o4)cc3)CC2)o1 [Compound 9a, 5-[1-(4-[(E)-1-(5-Nitro-2-furyl)methylidene]aminophenyl)-4-piperidyl]-2,3-dihydro-1,3,4-oxadiazol-2-one]	4 (≈ 10.4 µM)	2 (≈ 5.22 µM)	4 (≈ 10.4 µM)	
Cn1nc(C2CCN(c3ccc(/N=C/c4ccc([N+](=O)[O-])o4)cc3)CC2)oc1=O [Compound 9b, 3-Methyl-5-[1-(4-[(E)-1-(5-nitro-2-furyl)methylidene]aminophenyl)-4-piperidyl]-2,3-dihydro-1,3,4-oxadiazol-2-one]	4 (≈ 10.1 µM)	2 (≈ 5.03 µM)	8 (≈ 20.1 µM)	
CCn1nc(C2CCN(c3ccc(/N=C/c4ccc([N+](=O)[O-])o4)cc3)CC2)oc1=O [Compound 9c, 3-Ethyl-5-[1-(4-[(E)-1-(5-nitro-2-furyl)methylidene]aminophenyl)-4-piperidyl]-2,3-dihydro-1,3,4-oxadiazol-2-one]	2 (≈ 4.86 µM)	1 (≈ 2.43 µM)	4 (≈ 9.72 µM)	
O=c1oc(C2CCN(c3ccc(/N=C/c4ccc([N+](=O)[O-])o4)cc3)CC2)nn1Cc1ccccc1 [Compound 9d, 3-Benzyl-5-[1-(4-[(E)-1-(5-nitro-2-furyl)methylidene]aminophenyl)-4-piperidyl]-2,3-dihydro-1,3,4-oxadiazol-2-one]	4 (≈ 8.45 µM)	2 (≈ 4.22 µM)	8 (≈ 16.9 µM)	
O=c1[nH]nc(C2CCN(c3ccc(/N=C/c4ccc([N+](=O)[O-])o4)cc3F)CC2)o1 [Compound 9e, 5-[1-(2-Fluoro-4-[(E)-1-(5-nitro-2-furyl)methylidene]aminophenyl)-4-piperidyl]-2,3-dihydro-1,3,4-oxadiazol-2-one]	2 (≈ 4.98 µM)	2 (≈ 4.98 µM)	8 (≈ 19.9 µM)	
Cn1nc(C2CCN(c3ccc(/N=C/c4ccc([N+](=O)[O-])o4)cc3F)CC2)oc1=O [Compound 9f, 5-[1-(2-Fluoro-4-[(E)-1-(5-nitro-2-furyl)methylidene]aminophenyl)-4-piperidyl]-3-methyl-2,3-dihydro-1,3,4-oxadiazol-2-one]	4 (≈ 9.63 µM)	2 (≈ 4.81 µM)	8 (≈ 19.3 µM)	
CCn1nc(C2CCN(c3ccc(/N=C/c4ccc([N+](=O)[O-])o4)cc3F)CC2)oc1=O [Compound 9g, 3-Ethyl-5-[1-(2-fluoro-4-[(E)-1-(5-nitro-2-furyl)methylidene]aminophenyl)-4-piperidyl]-2,3-dihydro-1,3,4-oxadiazol-2-one]	2 (≈ 4.66 µM)	1 (≈ 2.33 µM)	4 (≈ 9.32 µM)	
O=c1oc(C2CCN(c3ccc(/N=C/c4ccc([N+](=O)[O-])o4)cc3F)CC2)nn1Cc1ccccc1 [Compound 9h, 3-Benzyl-5-[1-(2-fluoro-4-[(E)-1-(5-nitro-2-furyl)methylidene]aminophenyl)-4-piperidyl]-2,3-dihydro-1,3,4-oxadiazol-2-one]	2 (≈ 4.07 µM)	2 (≈ 4.07 µM)	8 (≈ 16.3 µM)	
O=c1[nH]nc(C2CCN(c3ccc(NCc4ccc([N+](=O)[O-])o4)cc3)CC2)o1 [Compound 10a, 5-[1-(4-[(5-Nitro-2-furyl)methyl]aminophenyl)-4-piperidyl]-2,3-dihydro-1,3,4-oxadiazol-2-one]	4 (≈ 10.4 µM)	1 (≈ 2.59 µM)	4 (≈ 10.4 µM)	
Cn1nc(C2CCN(c3ccc(NCc4ccc([N+](=O)[O-])o4)cc3)CC2)oc1=O [Compound 10b, 3-Methyl-5-[1-(4-[(5-nitro-2-furyl)methyl]aminophenyl)-4-piperidyl]-2,3-dihydro-1,3,4-oxadiazol-2-one]	4 (≈ 10 µM)	2 (≈ 5.01 µM)	8 (≈ 20 µM)	
CCn1nc(C2CCN(c3ccc(NCc4ccc([N+](=O)[O-])o4)cc3)CC2)oc1=O [Compound 10c, 3-Ethyl-5-[1-(4-[(5-nitro-2-furyl)methyl]aminophenyl)-4-piperidyl]-2,3-dihydro-1,3,4-oxadiazol-2-one]	1 (≈ 2.42 µM)	1 (≈ 2.42 µM)	4 (≈ 9.68 µM)	
O=c1oc(C2CCN(c3ccc(NCc4ccc([N+](=O)[O-])o4)cc3)CC2)nn1Cc1ccccc1 [Compound 10d, 3-Benzyl-5-[1-(4-[(5-nitro-2-furyl)methyl]aminophenyl)-4-piperidyl]-2,3-dihydro-1,3,4-oxadiazol-2-one]	2 (≈ 4.21 µM)	2 (≈ 4.21 µM)	8 (≈ 16.8 µM)	
O=c1[nH]nc(C2CCN(c3ccc(NCc4ccc([N+](=O)[O-])o4)cc3F)CC2)o1 [Compound 10e, 5-[1-(2-Fluoro-4-[(5-nitro-2-furyl)methyl]aminophenyl)-4-piperidyl]-2,3-dihydro-1,3,4-oxadiazol-2-one]	2 (≈ 4.96 µM)	2 (≈ 4.96 µM)	8 (≈ 19.8 µM)	
Cn1nc(C2CCN(c3ccc(NCc4ccc([N+](=O)[O-])o4)cc3F)CC2)oc1=O [Compound 10f, 5-[1-(2-Fluoro-4-[(5-nitro-2-furyl)methyl]aminophenyl)-4-piperidyl]-3-methyl-2,3-dihydro-1,3,4-oxadiazol-2-one]	8 (≈ 19.2 µM)	4 (≈ 9.58 µM)	16 (≈ 38.3 µM)	
CCn1nc(C2CCN(c3ccc(NCc4ccc([N+](=O)[O-])o4)cc3F)CC2)oc1=O [Compound 10g, 3-Ethyl-5-[1-(2-fluoro-4-[(5-nitro-2-furyl)methyl]aminophenyl)-4-piperidyl]-2,3-dihydro-1,3,4-oxadiazol-2-one]	4 (≈ 9.27 µM)	2 (≈ 4.64 µM)	4 (≈ 9.27 µM)	
O=c1oc(C2CCN(c3ccc(NCc4ccc([N+](=O)[O-])o4)cc3F)CC2)nn1Cc1ccccc1 [Compound 10h, 3-Benzyl-5-[1-(2-fluoro-4-[(5-nitro-2-furyl)methyl]aminophenyl)-4-piperidyl]-2,3-dihydro-1,3,4-oxadiazol-2-one]	4 (≈ 8.11 µM)	2 (≈ 4.05 µM)	8 (≈ 16.2 µM)	
O=C(Nc1cccc(F)c1)c1ccc([N+](=O)[O-])o1 [Compound 11a, N2-(3-fluorophenyl)-5-nitro-2-furamide]				0.12 (≈ 0.48 µM)
O=C(Nc1ccncc1)c1ccc([N+](=O)[O-])o1 [Compound 11b, N2-(4-pyridyl)-5-nitro-2-furamide]				0.8 (≈ 3.43 µM)
O=C(Nc1ccc(N2CCC(Cc3ccccc3)CC2)cc1)c1ccc([N+](=O)[O-])o1 [Compound 11c, N2-[4-(4-benzylpiperidino)phenyl]-5-nitro-2-furamide]				3.12 (≈ 7.7 µM)
CC1CCCN(Cn2nc(-c3ccncc3)oc2=O)C1 (stereo not shown) [Compound 12a, 3-[(3-methylpiperidino)methyl]-5-(4-pyridyl)-2,3-dihydro-1,3,4-oxadiazol-2-one]				3.13 (≈ 11.4 µM)
CN1CCN(Cn2nc(-c3ccncc3)oc2=O)CC1 [Compound 12b, 3-[(4-methylpiperazino)methyl]-5-(4-pyridyl)-2,3-dihydro-1,3,4-oxadiazol-2-one]				1.25 (≈ 4.54 µM)
O=c1oc(-c2ccncc2)nn1CN1CCC(Cc2ccccc2)CC1 [Compound 12c, 3-[(4-benzylpiperidino)methyl]-5-(4-pyridyl)-2,3-dihydro-1,3,4-oxadiazol-2-one]				2.5 (≈ 7.13 µM)
NNC(=O)c1ccncc1 [Isoniazid, reference compound]		2.5 (≈ 18.2 µM)		
CO[C@H]1/C=C/O[C@@]2(C)Oc3c(C)c(O)c4c(O)c(c(/C=N/N5CCN(C)CC5)c(O)c4c3C2=O)NC(=O)/C(C)=C\C=C\[C@H](C)[C@H](O)[C@@H](C)[C@@H](O)[C@@H](C)[C@H](OC(C)=O)[C@@H]1C [Rifampicin, reference compound]	> 128	0.5 (≈ 0.608 µM)	2 (≈ 2.43 µM)	
